Measurements as given in publication PMC4836675, “Tetrabromobisphenol A Is an Efficient Stabilizer of the Transthyretin Tetramer” (PLoS ONE, 2016).
Entries after “also recorded” stand apart in the source; their conditions may differ. Where two headings read alike, the source gives them in different places. Values belong to the molecule of their own block, whether it stands above or below them.

Assays:
plasma TTR = plasma TTR (Homo sapiens, UniProt P02766); assay: Drug efficacy/selectivity in human plasma (urea denaturation, western blot of monomeric TTR)
WT-TTR = target: T1, WT-TTR (Homo sapiens, UniProt P02766); assay: Turbidity assay of TTR aggregation at low pH; assay type: biochemical; settings: WT-TTR 15 μM tetramer, compound 15 μM, pH 4.5, 72 h
T1 construct: made in house; host or cells: E. coli BL21

[1] = set-up: method as in earlier work; settings: steady state after 14 days of daily administration; cited from earlier work
[2] = tested on: SH-SY5Y neuroblastoma cells; assay: TTR-mediated cytotoxicity, resazurin cell-viability assay; settings: TTR 15 μM, compound 15 μM, 72 h
V30M-TTR = target: T2, V30M-TTR (Homo sapiens, UniProt P02766, V50M); assay: Turbidity assay of TTR aggregation at low pH; assay type: biochemical; settings: V30M-TTR 15 μM tetramer, compound 15 μM, pH 4.5, 72 h
T2 construct: made in house; host or cells: E. coli BL21

TTR = target: T3, TTR (Homo sapiens, UniProt P02766); assay: Isothermal titration calorimetry (ITC); assay type: binding
T3 construct: made in house; host or cells: E. coli BL21
Procedure: ITC experiments were performed using an Auto-iTC200 (MicroCal) at 25°C. […] For each experiment, 19 automated injections of 2 μL and a duration 0.8 s were performed with 300 s intervals between each injection and with a stirring speed of 1000 rpm. The titrations were done with high feedback and a filter period of 5 s and were repeated twice. Calorimetric data were plotted and fitted using the standard single-site binding model.

[3] = tested on: Salmonella typhimurium, Escherichia coli, and yeast cells; settings: with and without metabolic activation; cited from earlier work
[4] = cited from earlier work
Sprague—Dawley rats = tested on: Sprague—Dawley rats; set-up: method as in PMID 25523853; settings: prolonged daily oral 100, 300, or 1000 mg·kg−1·day−1; cited from earlier work
[5] = cited from earlier work; for Serum concentration: after seven days, 12 hours after last dose
[6] = rats, single oral dose 300 mg/kg body weight

- Saturation level of TTR (plasma TTR; from IC50 around 5 μM and tafamidis plasma concentration 3.5–8.5 μM, TTR 4 μM): 31–56%
- Aggregation of TTR at low pH (turbidity at 400 nm) (WT-TTR): prevents the aggregation
- Aggregation of TTRVal30Met at low pH (turbidity at 400 nm) (V30M-TTR): prevents the aggregation
Structure (SMILES): O=C(O)c1ccc2nc(-c3cc(Cl)cc(Cl)c3)oc2c1 [Tafamidis, tafamidis]
- Clinically beneficial plasma concentration [1]: 3.5 to 8.5 µM
- Cell survival in presence of cytotoxic TTR [2]: increased cell survival to essentially that of the untreated control cells

Structure (SMILES): CC(C)(c1cc(Br)c(O)c(Br)c1)c1cc(Br)c(O)c(Br)c1 [TBBPA, 2,2’,6,6’-tetrabromo-4,4’-isopropylidentediphenol]
- IC50 (plasma TTR; IC50 plasma, human plasma, 2 h incubation, 4 M urea, three independent experiments): 3.3 ± 0.5 µM
- Saturation of the high-affinity binding site of TTR (plasma TTR; at a TBBPA plasma concentration of 5 μM, based on the IC50 value): 48%
- Stabilization of TTR tetramer in human plasma (plasma TTR; human plasma, 4 M urea): effectively stabilizes TTR at a stoichiometric ratio in plasma; also recorded: pronounced stabilizing effect on TTR is observed even at concentrations as low as 4 μM
- Aggregation of TTR at low pH (turbidity at 400 nm) (WT-TTR): efficiently prevents the aggregation
- Kd (TTR; 25°C, assuming independent binding sites (single-site model), read-out: Binding affinity to TTR (Kd)): 0.02 µM
- Kd (TTR; negative cooperativity, first site, read-out: Kd1): 0.006 µM
- Kd (TTR; read-out: Kd2, negative cooperativity, second site): 0.975 µM
- Cell survival in presence of cytotoxic TTR [2]: increased cell survival to essentially that of the untreated control cells
- Genotoxicity in Ames tests [3]: negative results
- Oral bioavailability ([4]; animals, oral intake, compared to tafamidis and diflunisal): low bioavailability
- Half-lives ([4]; oral 200, 500 and 1000 mg/kg): 7.5 to 9.5 h
- Half-life [4, 6]: around 13 h
- Time of maximal serum concentration [4, 6]: 3 h
- Elimination half-life ([4]; single oral dose 250 mg/kg body weight, 14C-TBBPA, non-compartmental model): around 4.5 h
- Time of maximal plasma concentration post-dose ([4]; single oral dose 250 mg/kg body weight, 14C-TBBPA): 127 min
- Mortality and neuropathological ailments (Sprague—Dawley rats): did not result in increased mortality or the development of neuropathological ailments
- Aggregation of TTRVal30Met at low pH (turbidity at 400 nm) (V30M-TTR): efficiently prevents the aggregation

Structure (SMILES): O=C(O)c1cc(-c2ccc(F)cc2F)ccc1O [Diflunisal, diflunisal]
- Aggregation of TTR at low pH (turbidity at 400 nm) (WT-TTR): prevents the aggregation
- Cell survival in presence of cytotoxic TTR [2]: increased cell survival to essentially that of the untreated control cells
- Serum concentration ([5]; 250 mg twice per day): 145 µM
- Serum concentration ([5]; 500 mg twice per day): 420 µM
- Bioavailability ([5]; oral administration): good
- Aggregation of TTRVal30Met at low pH (turbidity at 400 nm) (V30M-TTR): prevents the aggregation
